Assay results published in ChEMBL document CHEMBL5291721, “A preclinical secondary pharmacology resource illuminates target-adverse drug reaction associations of marketed drugs” (Nat Commun, 2023).

Legend:
[1] = target: T1, Alpha-1A adrenergic receptor (Homo sapiens, UniProt P35348); assay type: functional, cell-based
T1 sequence (P35348 whole entry): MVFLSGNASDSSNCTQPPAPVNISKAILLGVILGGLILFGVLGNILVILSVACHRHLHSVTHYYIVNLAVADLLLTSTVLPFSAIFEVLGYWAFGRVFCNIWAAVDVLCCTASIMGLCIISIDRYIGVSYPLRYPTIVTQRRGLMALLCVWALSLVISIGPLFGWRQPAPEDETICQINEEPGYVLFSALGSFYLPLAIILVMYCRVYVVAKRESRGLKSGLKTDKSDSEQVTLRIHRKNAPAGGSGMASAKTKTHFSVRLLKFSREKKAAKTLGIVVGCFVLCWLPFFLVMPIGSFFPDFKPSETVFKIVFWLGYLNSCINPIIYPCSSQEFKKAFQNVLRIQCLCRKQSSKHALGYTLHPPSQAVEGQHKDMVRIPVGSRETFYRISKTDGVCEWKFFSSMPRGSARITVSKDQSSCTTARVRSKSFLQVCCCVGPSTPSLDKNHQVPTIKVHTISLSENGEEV

Estrogen receptor = target: T2, Estrogen receptor (Homo sapiens, UniProt P03372)
T2 sequence (P03372 whole entry): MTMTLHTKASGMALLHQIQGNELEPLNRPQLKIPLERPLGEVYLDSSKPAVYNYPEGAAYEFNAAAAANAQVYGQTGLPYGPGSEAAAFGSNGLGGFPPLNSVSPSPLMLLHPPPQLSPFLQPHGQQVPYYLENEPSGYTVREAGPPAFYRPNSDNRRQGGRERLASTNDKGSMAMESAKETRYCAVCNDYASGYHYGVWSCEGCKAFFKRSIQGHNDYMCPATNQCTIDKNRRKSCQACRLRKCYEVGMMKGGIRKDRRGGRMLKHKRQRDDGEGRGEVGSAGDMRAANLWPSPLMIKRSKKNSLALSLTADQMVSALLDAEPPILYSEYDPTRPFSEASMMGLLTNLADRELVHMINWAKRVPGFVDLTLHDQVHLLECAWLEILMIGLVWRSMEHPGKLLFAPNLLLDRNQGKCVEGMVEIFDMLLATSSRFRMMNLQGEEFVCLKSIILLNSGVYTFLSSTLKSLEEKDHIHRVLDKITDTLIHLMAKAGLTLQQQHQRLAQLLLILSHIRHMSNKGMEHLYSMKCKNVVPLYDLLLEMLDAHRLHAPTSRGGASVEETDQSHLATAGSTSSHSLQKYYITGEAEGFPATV

[2] = target: T3, Muscarinic acetylcholine receptor M1 (Homo sapiens, UniProt P11229); assay type: functional
T3 sequence (P11229 whole entry): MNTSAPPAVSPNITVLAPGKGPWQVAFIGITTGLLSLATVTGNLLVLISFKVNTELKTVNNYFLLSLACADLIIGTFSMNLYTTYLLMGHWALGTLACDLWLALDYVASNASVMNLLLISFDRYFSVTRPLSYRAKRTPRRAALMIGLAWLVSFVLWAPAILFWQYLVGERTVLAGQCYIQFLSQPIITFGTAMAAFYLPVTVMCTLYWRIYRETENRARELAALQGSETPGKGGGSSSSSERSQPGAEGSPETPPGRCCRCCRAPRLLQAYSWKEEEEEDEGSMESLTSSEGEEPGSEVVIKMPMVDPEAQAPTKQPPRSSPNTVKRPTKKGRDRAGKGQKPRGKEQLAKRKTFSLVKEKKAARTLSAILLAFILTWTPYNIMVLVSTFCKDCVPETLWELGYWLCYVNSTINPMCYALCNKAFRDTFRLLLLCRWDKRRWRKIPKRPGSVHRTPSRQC

[3] = target: Voltage-gated inwardly rectifying potassium channel KCNH2 (Homo sapiens, UniProt Q12809); assay type: functional; conditions: read-out: AC50
Sequence of Voltage-gated inwardly rectifying potassium channel KCNH2 (Q12809 whole entry): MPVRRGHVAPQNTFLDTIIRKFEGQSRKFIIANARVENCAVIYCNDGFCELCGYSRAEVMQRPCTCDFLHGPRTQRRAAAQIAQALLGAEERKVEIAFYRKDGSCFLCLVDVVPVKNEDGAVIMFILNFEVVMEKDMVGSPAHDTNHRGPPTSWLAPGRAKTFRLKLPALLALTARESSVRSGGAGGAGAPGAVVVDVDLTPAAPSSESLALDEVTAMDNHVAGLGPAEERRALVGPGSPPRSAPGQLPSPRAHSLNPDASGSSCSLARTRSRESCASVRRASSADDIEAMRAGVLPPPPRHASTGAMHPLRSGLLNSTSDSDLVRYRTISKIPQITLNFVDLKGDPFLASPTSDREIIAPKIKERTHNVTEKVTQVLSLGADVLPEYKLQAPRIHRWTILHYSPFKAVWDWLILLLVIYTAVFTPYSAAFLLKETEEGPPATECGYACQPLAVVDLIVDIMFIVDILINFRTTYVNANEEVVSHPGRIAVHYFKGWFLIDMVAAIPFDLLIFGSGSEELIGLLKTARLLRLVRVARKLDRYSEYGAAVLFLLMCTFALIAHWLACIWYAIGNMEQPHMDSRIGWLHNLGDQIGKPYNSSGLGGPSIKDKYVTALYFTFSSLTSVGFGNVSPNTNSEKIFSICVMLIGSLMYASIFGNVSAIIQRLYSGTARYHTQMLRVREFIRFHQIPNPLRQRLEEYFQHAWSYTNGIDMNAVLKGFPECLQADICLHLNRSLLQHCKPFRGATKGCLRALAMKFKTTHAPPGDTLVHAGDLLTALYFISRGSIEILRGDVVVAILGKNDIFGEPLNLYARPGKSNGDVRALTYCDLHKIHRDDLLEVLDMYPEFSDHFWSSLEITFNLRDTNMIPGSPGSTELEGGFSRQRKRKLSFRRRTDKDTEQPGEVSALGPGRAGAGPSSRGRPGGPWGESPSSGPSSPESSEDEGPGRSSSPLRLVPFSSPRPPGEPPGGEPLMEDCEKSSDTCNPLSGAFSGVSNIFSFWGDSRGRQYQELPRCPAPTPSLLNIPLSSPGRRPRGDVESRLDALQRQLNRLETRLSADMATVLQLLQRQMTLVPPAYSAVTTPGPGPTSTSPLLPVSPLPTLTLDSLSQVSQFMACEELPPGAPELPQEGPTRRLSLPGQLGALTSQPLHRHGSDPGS

D(3) dopamine receptor = D(3) dopamine receptor (Homo sapiens, UniProt P35462)
Sequence of D(3) dopamine receptor (P35462 whole entry): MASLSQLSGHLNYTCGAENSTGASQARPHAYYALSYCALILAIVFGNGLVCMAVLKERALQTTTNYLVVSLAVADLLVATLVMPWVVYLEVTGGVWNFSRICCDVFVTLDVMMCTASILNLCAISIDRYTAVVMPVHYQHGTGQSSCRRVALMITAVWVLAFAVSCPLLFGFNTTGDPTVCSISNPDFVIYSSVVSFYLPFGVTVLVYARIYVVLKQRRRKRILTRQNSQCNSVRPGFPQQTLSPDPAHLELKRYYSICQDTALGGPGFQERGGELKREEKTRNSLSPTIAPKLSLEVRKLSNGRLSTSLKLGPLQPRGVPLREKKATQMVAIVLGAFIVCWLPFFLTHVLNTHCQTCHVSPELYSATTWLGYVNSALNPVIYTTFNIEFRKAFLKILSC

[4] = target: T4, 5-hydroxytryptamine receptor 2C (Homo sapiens, UniProt P28335)
T4 sequence (P28335 whole entry): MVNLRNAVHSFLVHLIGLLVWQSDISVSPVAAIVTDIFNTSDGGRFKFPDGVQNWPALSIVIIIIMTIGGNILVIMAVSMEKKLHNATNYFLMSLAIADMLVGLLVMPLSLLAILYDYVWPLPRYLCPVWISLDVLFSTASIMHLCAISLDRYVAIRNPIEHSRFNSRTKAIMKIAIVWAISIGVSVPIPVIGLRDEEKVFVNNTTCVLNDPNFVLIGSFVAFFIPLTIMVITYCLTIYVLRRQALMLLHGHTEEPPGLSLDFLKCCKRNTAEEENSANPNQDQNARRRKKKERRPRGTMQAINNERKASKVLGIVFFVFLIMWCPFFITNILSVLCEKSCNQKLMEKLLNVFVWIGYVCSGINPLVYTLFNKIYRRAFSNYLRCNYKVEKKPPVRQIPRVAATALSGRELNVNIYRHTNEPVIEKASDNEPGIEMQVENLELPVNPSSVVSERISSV

Vasopressin V1a receptor = Vasopressin V1a receptor (Homo sapiens, UniProt P37288)
Sequence of Vasopressin V1a receptor (P37288 whole entry): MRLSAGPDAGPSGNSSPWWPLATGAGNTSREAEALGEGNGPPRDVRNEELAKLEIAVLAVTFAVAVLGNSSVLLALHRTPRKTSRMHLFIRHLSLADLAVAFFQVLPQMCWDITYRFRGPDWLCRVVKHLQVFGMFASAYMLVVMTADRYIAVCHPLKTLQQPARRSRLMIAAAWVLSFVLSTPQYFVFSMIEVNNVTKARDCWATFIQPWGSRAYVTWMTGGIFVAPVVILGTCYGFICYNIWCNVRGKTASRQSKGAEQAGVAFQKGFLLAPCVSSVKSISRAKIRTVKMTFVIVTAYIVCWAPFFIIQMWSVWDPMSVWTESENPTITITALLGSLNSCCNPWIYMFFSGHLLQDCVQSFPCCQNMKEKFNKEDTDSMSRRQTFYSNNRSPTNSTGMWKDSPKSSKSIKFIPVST

[5] = target: T5, Alpha-2A adrenergic receptor (Homo sapiens, UniProt P08913); assay type: functional, cell-based
T5 sequence (P08913 whole entry): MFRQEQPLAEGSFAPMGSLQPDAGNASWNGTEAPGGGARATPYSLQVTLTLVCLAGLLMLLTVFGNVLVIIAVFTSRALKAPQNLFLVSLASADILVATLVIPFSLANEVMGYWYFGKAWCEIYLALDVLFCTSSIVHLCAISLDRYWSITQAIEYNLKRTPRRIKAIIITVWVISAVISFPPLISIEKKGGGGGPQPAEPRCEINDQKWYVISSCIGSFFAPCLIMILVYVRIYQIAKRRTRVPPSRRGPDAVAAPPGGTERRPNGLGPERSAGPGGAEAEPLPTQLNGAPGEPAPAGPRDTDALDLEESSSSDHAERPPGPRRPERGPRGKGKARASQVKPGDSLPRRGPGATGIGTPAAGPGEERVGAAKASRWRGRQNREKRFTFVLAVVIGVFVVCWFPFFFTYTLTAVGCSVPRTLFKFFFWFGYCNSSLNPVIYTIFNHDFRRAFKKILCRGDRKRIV

[6] = target: Beta-1 adrenergic receptor (Homo sapiens, UniProt P08588); assay type: functional
Sequence of Beta-1 adrenergic receptor (P08588 whole entry): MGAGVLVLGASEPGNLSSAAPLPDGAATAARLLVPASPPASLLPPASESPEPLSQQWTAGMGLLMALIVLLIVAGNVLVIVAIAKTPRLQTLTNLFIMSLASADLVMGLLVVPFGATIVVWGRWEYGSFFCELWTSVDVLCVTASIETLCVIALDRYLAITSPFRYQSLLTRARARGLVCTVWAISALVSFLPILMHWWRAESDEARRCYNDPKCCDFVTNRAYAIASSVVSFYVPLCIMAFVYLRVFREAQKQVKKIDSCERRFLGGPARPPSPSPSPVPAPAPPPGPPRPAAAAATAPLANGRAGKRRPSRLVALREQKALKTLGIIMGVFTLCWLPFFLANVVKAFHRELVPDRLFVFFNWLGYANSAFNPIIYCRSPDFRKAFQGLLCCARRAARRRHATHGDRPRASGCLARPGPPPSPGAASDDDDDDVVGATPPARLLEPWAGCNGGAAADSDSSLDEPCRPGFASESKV

[7] = target: Delta-type opioid receptor (Homo sapiens, UniProt P41143)
Sequence of Delta-type opioid receptor (P41143 whole entry): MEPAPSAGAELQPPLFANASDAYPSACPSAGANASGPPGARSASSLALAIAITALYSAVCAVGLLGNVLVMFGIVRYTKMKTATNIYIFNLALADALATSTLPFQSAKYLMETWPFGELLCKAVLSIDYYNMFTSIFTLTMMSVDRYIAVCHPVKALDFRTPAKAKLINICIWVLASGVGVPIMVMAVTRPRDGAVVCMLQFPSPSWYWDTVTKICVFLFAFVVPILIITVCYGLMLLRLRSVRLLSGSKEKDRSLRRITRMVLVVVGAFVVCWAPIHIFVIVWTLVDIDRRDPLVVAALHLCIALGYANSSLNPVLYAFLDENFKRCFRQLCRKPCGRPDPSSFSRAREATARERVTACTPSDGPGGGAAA
Also: assay procedure not described here.

Row | Compound | AC50 [1] [µM] | AC50 (Estrogen receptor) [µM] | AC50 [2] [µM] | AC50 [3] [µM] | AC50 (D(3) dopamine receptor) [µM] | AC50 [4] [µM] | AC50 (Vasopressin V1a receptor) [µM] | AC50 [5] [µM] | AC50 [6] [µM] | AC50 [7] [µM]
1 | Cc1ccc(-c2ncc(Cl)cc2-c2ccc(S(C)(=O)=O)cc2)cn1 [ETORICOXIB] | > 30 | > 30 | > 10 | > 30 | > 10 | > 10 | > 30 | > 10 | > 10 | > 10
2 | COc1ccc(C(Cl)=C(c2ccc(OC)cc2)c2ccc(OC)cc2)cc1 [CHLOROTRIANISENE] | 21 | 0.817 | > 30 | > 30 | > 30 | > 30 | > 30 | > 30 | > 30 | > 30
3 | CC1=C(/C=C/C(C)=C/C=C/C(C)=C/C(=O)Oc2c(C)c(C)c3c(c2C)CCC(C)(CCCC(C)CCCC(C)CCCC(C)C)O3)C(C)(C)CCC1 (stereo not given) [TRETINOIN TOCOFERIL] | > 30 | > 30 | > 30 | > 30 | > 30 | > 30 | > 30 | > 30 | > 30 | > 30
4 | CS(=O)(=O)NC(=O)CCC/C=C\C[C@H]1C(=O)C[C@@H](O)[C@@H]1/C=C/[C@@H](O)COc1ccccc1 [SULPROSTONE] | > 30 | > 30 | > 30 | > 30 | > 30 | > 30 | > 30 | > 30 | > 30 | > 30
5 | CC(C(=O)O)c1ccc(C(=O)c2ccccc2)s1 (stereo not given) [TIAPROFENIC ACID] | > 30 | > 10 | > 10 | 9.26 | 8.6 | > 30 | > 10 | > 10 | > 10 | > 30
6 | C[C@@H](Cc1ccccc1)N(C)Cc1ccccc1 [BENZPHETAMINE] | 13 | > 10 | > 10 | 14.5 | > 30 | > 30 | > 10 | > 10 | > 10 | > 30
7 | CN1C(=O)CN=C(c2ccccc2F)c2cc([N+](=O)[O-])ccc21 [FLUNITRAZEPAM] | > 30 | > 30 | > 10 | > 30 | > 30 | > 30 | > 10 | > 10 | > 10 | > 10
8 | OCC(CO)N[C@H]1C[C@](O)(CO)[C@@H](O)[C@H](O)[C@H]1O [VOGLIBOSE] | > 30 | > 30 | > 30 | > 30 | > 30 | > 30 | > 30 | > 30 | > 30 | > 30
